Patent US20070032533A1, “Nitric oxide enhancing angiotensin II antagonist compounds, compositions and methods of use” (NitroMed, Inc., priority 2005, published 2007)
Counter-ions that a name gives are not always drawn.

Experiments:
[1] = biological target: T1, Human angiotensin II type 1 receptor (Homo sapiens, UniProt P30556); assay: Human angiotensin II type 1 receptor binding assay; conditions: for AT1 Binding Human % Inhibition at 100 nM / inhibition at 0.1 µM: percent inhibition of control specific binding at 100 nM test compound; for inhibition at 0.1 µM: read-out: AT1 Binding Human % Inhibition at 100 nM
T1 construct: Cerep, Seattle, Wash; (contract laboratory that ran the assay)
T1 sequence (P30556 1-359): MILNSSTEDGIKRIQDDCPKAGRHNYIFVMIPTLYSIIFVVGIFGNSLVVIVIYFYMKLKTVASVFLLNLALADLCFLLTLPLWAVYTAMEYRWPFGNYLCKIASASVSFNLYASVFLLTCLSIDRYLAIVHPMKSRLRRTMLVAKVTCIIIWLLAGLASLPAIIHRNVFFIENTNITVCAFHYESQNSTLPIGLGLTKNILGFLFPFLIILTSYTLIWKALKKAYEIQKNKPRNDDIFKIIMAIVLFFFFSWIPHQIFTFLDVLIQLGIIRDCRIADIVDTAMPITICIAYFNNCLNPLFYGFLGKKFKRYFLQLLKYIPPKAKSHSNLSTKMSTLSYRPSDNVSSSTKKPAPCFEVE
Procedure: Human Angiotensin II Type 1 Receptor Binding Assay
The Human angiotensin II type 1 receptor binding assay was performed by Cerep, Seattle, Wash., using the procedure described in Bergsma et al; Biochem. Biophys. Res. Commun., 183: 989-995 (1992).

Structure (SMILES)	melting point	inhibition at 0.1 µM [1]	IC50 ([1]; human AT1 receptor binding, performed by Cerep)	AT1 Binding Human % Inhibition at 100 nM [1]
CCc1nc2c(C)cc(C)nc2n1Cc1ccc(-c2ccccc2S(=O)(=O)NC(=O)c2ccccc2)cc1 [MK 996, reference compound]				91%
CC(C)[C@@H](C(=O)O)N(Cc1ccc(-c2ccccc2-c2nnn[nH]2)cc1)C(=O)CCCC(CO[N+](=O)[O-])O[N+](=O)[O-] (stereo partly drawn) [Example 5b, L-valine, N-[5,6-bis(nitrooxy)-1-oxohexyl]-N-[[2′-(1H-tetrazol-5-yl)[1,1′-biphenyl]-4-yl]methyl]]	192 °C (dec.)	-1%		
CC(C)[C@@H](C(=O)O)N(Cc1ccc(-c2ccccc2-c2nnn[nH]2)cc1)C(=O)CCC(CO[N+](=O)[O-])O[N+](=O)[O-] (stereo partly drawn) [Example 4b, L-valine, N-[4,5-bis(nitrooxy)-1-oxopentyl]-N-[[2′-(1H-tetrazol-5-yl)[1,1′-biphenyl]-4-yl]methyl]]	182 °C (dec.)	2%		
CCCCC(=O)N(Cc1ccc(-c2ccccc2-c2nnn[nH]2)cc1)[C@H](C(=O)N(CCO[N+](=O)[O-])CCO[N+](=O)[O-])C(C)C [Example 8]	87 to 90 °C	4%		
CCCCC(=O)N(Cc1ccc(-c2ccccc2-c2nnn[nH]2)cc1)[C@H](C(=O)N1CCC(CO[N+](=O)[O-])CC1)C(C)C [Example 10, Pentanamide, N-[(1S)-2-methyl-1-[[4-[(nitrooxy)methyl]-1-piperidinyl]carbonyl]propyl]-N-[[2′-(1H-tetrazol-5-yl) [1,1′-biphenyl]-4-yl]methyl]]	86 to 88 °C	22%		
CCCCC(=O)N(Cc1ccc(-c2ccccc2-c2nnn[nH]2)cc1)[C@H](C(=O)N(C)CCO[N+](=O)[O-])C(C)C [Example 9]	86 to 89 °C	8%		
CC(C)[C@@H](C(=O)N(C)C)N(Cc1ccc(-c2ccccc2-c2nnn[nH]2)cc1)C(=O)CCCCO[N+](=O)[O-] [Example 6, Pentanamide, N-[(1S)-1-[(dimethylamino)carbonyl]-2-methylpropyl]-5 (nitrooxy)-N-[[2′-(1H-tetrazol-5-yl)[1,1′-biphenyl]-4-yl]methyl]]	75 to 78 °C	83%		
CCc1nc2c(C)cc(C)nc2n1Cc1ccc(-c2ccccc2S(=O)(=O)NC(=O)C2=CC(C)(C)N([O])C2(C)C)cc1 [Example 12, 1H-Pyrrol-1-yloxy, 3-[[[[4′-[(2-ethyl-5,7-dimethyl-3H-imidazo[4,5-b]pyridin-3-yl)methyl][1,1′-biphenyl]-2-yl]sulfonyl]amino]carbonyl]-2,5-dihydro-2,2,5,5-tetramethyl]				78%
CCc1nc2c(C)cc(C)nc2n1Cc1ccc(-c2ccccc2S(=O)(=O)NC(=O)C2CC(C)(C)N([O])C(C)(C)C2)cc1 [Example 11, 1-Piperidinyloxy, 4-[[[[4′-[(2-ethyl-5,7-dimethyl-3H-imidazo[4,5-b]pyridin-3-yl)methyl][1,1′-biphenyl]-2-yl]sulfonyl]amino]carbonyl]-2,2,6,6-tetramethyl]				88%
CCc1nc2c(C)cc(C)nc2n1Cc1ccc(-c2ccccc2S(=O)(=O)NC(=O)c2cccc(CO[N+](=O)[O-])c2)cc1 [Example 13, Benzamide, N-[[4′-[(2-ethyl-5,7-dimethyl-3H-imidazo[4,5-b]pyridin-3-yl)methyl][1,1′-biphenyl]-2-yl]sulfonyl]-3-[(nitrooxy)methyl]]	123 °C (dec.)	73%		
CCCCC(=O)N(Cc1ccc(-c2ccccc2-c2nnn[nH]2)cc1)[C@H](C(=O)O)C(C)C [Valsartan, reference compound]		94%		

Continued, in another order:

melting point	inhibition at 0.1 µM [1]	IC50 ([1]; human AT1 receptor binding, performed by Cerep)	Structure (SMILES)	AT1 Binding Human % Inhibition at 100 nM [1]
126 °C (dec.)			CCOc1nc2cccc(CO[N+](=O)[O-])c2n1Cc1ccc(-c2ccccc2-c2nnn[nH]2)cc1 (as salt: nitrate) [Example 14e, 1H-benzimidazole-7-methanol, 2-ethoxy-1-[[2′-(1H-tetrazol-5-yl)[1,1′-biphenyl]-4-yl]methyl]-, nitrate (ester)]	
151 °C (dec.)	5%		CC(C)[C@@H](C(=O)O)N(Cc1ccc(-c2ccccc2-c2nnn[nH]2)cc1)C(=O)c1cccc(CO[N+](=O)[O-])c1 [Example 3b, L-valine, N-[3-[(nitrooxy)methyl]benzoyl]-N-[[2′-(1H-tetrazol-5-yl)[1,1′-biphenyl]-4-yl]methyl]]	
108 to 111 °C	86%	18 nM	CC(C)[C@@H](C(=O)O)N(Cc1ccc(-c2ccccc2-c2nnn[nH]2)cc1)C(=O)CCCCO[N+](=O)[O-] [Example 1g, L-valine, N-[5-(nitrooxy)-1-oxopentyl]-N-[[2′-(1H-tetrazol-5-yl)[1,1′-biphenyl]-4-yl]methyl]]	
196 °C (dec.)			CC(C)[C@@H](C(=O)O)N(Cc1ccc(-c2ccccc2-c2nnn[nH]2)cc1)C(=O)CCCCCO[N+](=O)[O-] [Example 2g, L-valine, N-[6-(nitrooxy)-1-oxohexyl]-N-[[2′-(1H-tetrazol-5-yl)[1,1′-biphenyl]-4-yl]methyl]]	
54 to 59 °C	21%		CCCCC(=O)N(CCCO[N+](=O)[O-])Cc1ccc(-c2ccccc2-c2nnn[nH]2)cc1 [Example 7d, Pentanamide, N-[3-(nitrooxy)propyl]-N-[[2′-(1H-tetrazol-5-yl)[1,1′-biphenyl]-4-yl]methyl]]	
	12%		CC(C)[C@@H](C(=O)OC(C)(C)C)N(Cc1ccc(-c2ccccc2-c2nnn(C(c3ccccc3)(c3ccccc3)c3ccccc3)n2)cc1)C(=O)CCCCCO[N+](=O)[O-] [Example 2f, L-valine, N-[6-(nitrooxy)-1-oxohexyl]-N-[[2′-[2-(triphenylmethyl)-2H-tetrazol-5-yl][1,1′-biphenyl]-4-yl]methyl]-, 1,1-dimethylethyl ester]	
